Results: patent publication US8895744B2, “Alfa-carboline inhibitors of NPM-ALK, RET, and Bcr-Abl” (Universita' Degli Studi di Milano-Bicocca, priority 2008, dated 2014)
Where two headings read alike, the source gives them in different places.

Columns and labels:
ALK-negative U937 cells = assay: Tritiated thymidine uptake cell proliferation assay, U937 (control); type: cell-based; conditions: Homo sapiens, U-937; 3[H]-thymidine uptake, 72 h
Method: (§1) Method: Tritiated Thymidine Uptake Cell Proliferation Assay
The following procedure was used with parent untransformed BaF3 cells, BaF3 cells transformed with the oncogenic fusion protein NPM/ALK, NPM/ALK positive SUDHL-1 cells, ALK-negative U937 cells, NPM/ALK positive KARPAS-299 cells. The parent untransformed BaF3 cells and Alk-negative U937 cells are used as controls. Cells were seeded in U-bottomed 96-well plates at 10 000 cells/well in a volume of 100 μL in supplemented medium. In the case of the parent untransformed BaF3 cells, the medium was supplemented with IL-3. Serial dilutions of inhibitors were added to the appropriate wells and volumes adjusted to 200 μL. Controls were treated with the equivalent volume of vehicle, DMSO, alone. Plates were incubated at 37° C. for 72 h. ^3[H]-thymidine (1 μCi/well) was added for the last 16 h of incubation. Cells were harvested on to paper filters and ^3[H]-thymidine incorporation was measured using a β scintillation counter (1430 MicroBeta, Wallac, Turku, Finland). The 50% inhibitory concentration (IC50) was defined as the concentration of inhibitor, expressed in micromolar, that gave a 50% decrease in ^3[H]-thymidine uptake compared with controls. […]
The following procedure was used with parent untransformed BaF3 cells, BaF3 cells transformed with the oncogenic fusion protein RET-PTC2, or RET-negative 11937 cells. The parent untransformed BaF3 cells and RET-negative U937 cells are used as controls. Cells were seeded in U-bottomed 96-well plates at 10 000 cells/well in a volume of 100 μL in supplemented medium. In the case of the parent untransformed BaF3 cells, the medium was supplemented with IL-3. Serial dilutions of inhibitors were added to the appropriate wells and volumes adjusted to 200 μL. Controls were treated with the equivalent volume of vehicle, DMSO, alone. Plates were incubated at 37° C. for 72 h. ^3[H]-thymidine (1 μCi/well) was added for the last 16 h of incubation. Cells were harvested on to paper filters and ^3[H]-thymidine incorporation was measured using a β scintillation counter (1430 MicroBeta, Wallac, Turku, Finland). The 50% inhibitory concentration (IC50) was defined as the concentration of inhibitor, expressed in micromolar, that gave a 50% decrease in ^3[H]-thymidine uptake compared with controls.

[1] = system: parent untransformed BaF3 cells; assay: Tritiated thymidine uptake cell proliferation assay, parental BaF3 (control); type: cell-based; conditions: Mus musculus, 3[H]-thymidine uptake, 72 h, medium with IL-3, read-out: BaF parental IC50
Summary of the method: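 Control lines were parental BaF3 in IL-3-supplemented medium and ALK-, Abl- or RET-negative U937, seeded at 10 000 cells/well with serial inhibitor dilutions for 72 h at 37 °C. ³H-thymidine (1 μCi/well) was added for the final 16 h; IC50 (μM) is the concentration halving uptake versus DMSO.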

[2] = system: NPM/ALK positive SUDHL-1 cells; assay: Tritiated thymidine uptake cell proliferation assay, SUDHL-1; type: cell-based; conditions: 3[H]-thymidine uptake, 72 h
Method: Inhibition of the proliferation of NPM/ALK positive cells
as §1
The following procedure was used with parent untransformed BaF3 cells, BaF3 cells transformed with the oncogenic fusion protein NPM/ALK, NPM/ALK positive SUDHL-1 cells, ALK-negative U937 cells, NPM/ALK positive KARPAS-299 cells. The parent untransformed BaF3 cells and Alk-negative U937 cells are used as controls. Cells were seeded in U-bottomed 96-well plates at 10 000 cells/well in a volume of 100 μL in supplemented medium. In the case of the parent untransformed BaF3 cells, the medium was supplemented with IL-3. Serial dilutions of inhibitors were added to the appropriate wells and volumes adjusted to 200 μL. Controls were treated with the equivalent volume of vehicle, DMSO, alone. Plates were incubated at 37° C. for 72 h. ^3[H]-thymidine (1 μCi/well) was added for the last 16 h of incubation. Cells were harvested on to paper filters and ^3[H]-thymidine incorporation was measured using a β scintillation counter (1430 MicroBeta, Wallac, Turku, Finland). The 50% inhibitory concentration (IC50) was defined as the concentration of inhibitor, expressed in micromolar, that gave a 50% decrease in ^3[H]-thymidine uptake compared with controls.

Recombinant ALK kinase = biological target: T1, Recombinant ALK kinase (Homo sapiens, UniProt Q9UM73); assay: ALK kinase inhibitory activity, ELISA-based in vitro kinase assay; type: biochemical; conditions: for ALK IC50, 2nd / subsequent determination: 2nd or 'then'
T1 construct: made in house; host or cells: Sf9 insect cells (baculovirus)
T1 sequence (Q9UM73 19-1620): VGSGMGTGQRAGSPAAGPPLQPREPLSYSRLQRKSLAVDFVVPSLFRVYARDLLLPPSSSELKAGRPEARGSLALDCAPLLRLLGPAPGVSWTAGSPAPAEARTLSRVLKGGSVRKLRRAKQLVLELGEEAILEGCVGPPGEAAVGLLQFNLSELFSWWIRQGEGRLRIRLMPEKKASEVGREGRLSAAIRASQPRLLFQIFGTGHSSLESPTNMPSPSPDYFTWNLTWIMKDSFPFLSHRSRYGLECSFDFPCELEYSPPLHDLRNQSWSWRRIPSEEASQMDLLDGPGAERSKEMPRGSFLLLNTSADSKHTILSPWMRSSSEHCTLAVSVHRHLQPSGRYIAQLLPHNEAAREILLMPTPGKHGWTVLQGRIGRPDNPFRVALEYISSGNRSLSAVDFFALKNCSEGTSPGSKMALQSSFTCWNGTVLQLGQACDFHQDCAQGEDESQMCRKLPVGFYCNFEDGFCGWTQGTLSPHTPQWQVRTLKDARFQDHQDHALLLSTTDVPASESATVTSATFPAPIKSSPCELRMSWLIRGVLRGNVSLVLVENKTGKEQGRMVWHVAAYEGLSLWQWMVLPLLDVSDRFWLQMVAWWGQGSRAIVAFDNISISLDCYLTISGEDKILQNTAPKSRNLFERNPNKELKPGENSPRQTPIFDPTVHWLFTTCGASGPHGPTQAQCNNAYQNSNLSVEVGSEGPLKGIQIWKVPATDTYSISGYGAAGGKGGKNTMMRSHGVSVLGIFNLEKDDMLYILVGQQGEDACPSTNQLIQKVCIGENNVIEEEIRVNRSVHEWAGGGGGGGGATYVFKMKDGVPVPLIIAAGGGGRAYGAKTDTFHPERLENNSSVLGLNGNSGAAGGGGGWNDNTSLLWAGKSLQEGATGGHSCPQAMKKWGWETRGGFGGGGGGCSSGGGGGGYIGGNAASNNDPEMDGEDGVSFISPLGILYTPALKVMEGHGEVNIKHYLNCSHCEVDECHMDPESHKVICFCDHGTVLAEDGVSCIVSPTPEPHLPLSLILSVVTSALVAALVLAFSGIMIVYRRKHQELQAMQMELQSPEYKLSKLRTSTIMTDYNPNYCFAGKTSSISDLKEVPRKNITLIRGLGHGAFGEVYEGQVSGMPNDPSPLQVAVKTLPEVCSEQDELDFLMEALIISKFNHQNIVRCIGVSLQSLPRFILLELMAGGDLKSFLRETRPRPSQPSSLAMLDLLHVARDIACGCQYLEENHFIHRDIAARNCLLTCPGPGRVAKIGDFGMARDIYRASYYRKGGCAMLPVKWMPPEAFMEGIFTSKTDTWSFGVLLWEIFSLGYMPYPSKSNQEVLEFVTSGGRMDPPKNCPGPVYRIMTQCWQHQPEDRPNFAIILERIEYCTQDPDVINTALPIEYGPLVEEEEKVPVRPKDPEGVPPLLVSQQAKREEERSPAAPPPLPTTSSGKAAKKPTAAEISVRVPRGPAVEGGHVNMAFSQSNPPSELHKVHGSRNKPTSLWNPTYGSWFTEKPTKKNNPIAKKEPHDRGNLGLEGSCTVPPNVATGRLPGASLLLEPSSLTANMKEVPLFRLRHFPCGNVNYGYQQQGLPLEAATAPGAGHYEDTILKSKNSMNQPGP
Summary of the method: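 Sf9-expressed, purified recombinant ALK phosphorylated a plate-coated peptide substrate with 0.3 mM ATP, Mn2+/Mg2+, pH 7.5, 15 min at 30° C, after 10 min inhibitor preincubation. Phosphotyrosine was detected by anti-pTyr ELISA (TMB, A450); IC50 in μM is the concentration giving 50% inhibition relative to control.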

[3] = biological target: T2, BaF3 cells transformed with the oncogenic fusion protein NPM/ALK (Homo sapiens, UniProt Q9UM73); assay: Tritiated thymidine uptake cell proliferation assay, BaF3 NPM/ALK; type: cell-based; conditions: 3[H]-thymidine uptake, 72 h; read-out: BaF NPM/ALK IC50
T2 construct: fused on or other part: P06748 (Nucleophosmin)
T2 sequence (Q9UM73 whole entry, change not shown, the tested form may be a part): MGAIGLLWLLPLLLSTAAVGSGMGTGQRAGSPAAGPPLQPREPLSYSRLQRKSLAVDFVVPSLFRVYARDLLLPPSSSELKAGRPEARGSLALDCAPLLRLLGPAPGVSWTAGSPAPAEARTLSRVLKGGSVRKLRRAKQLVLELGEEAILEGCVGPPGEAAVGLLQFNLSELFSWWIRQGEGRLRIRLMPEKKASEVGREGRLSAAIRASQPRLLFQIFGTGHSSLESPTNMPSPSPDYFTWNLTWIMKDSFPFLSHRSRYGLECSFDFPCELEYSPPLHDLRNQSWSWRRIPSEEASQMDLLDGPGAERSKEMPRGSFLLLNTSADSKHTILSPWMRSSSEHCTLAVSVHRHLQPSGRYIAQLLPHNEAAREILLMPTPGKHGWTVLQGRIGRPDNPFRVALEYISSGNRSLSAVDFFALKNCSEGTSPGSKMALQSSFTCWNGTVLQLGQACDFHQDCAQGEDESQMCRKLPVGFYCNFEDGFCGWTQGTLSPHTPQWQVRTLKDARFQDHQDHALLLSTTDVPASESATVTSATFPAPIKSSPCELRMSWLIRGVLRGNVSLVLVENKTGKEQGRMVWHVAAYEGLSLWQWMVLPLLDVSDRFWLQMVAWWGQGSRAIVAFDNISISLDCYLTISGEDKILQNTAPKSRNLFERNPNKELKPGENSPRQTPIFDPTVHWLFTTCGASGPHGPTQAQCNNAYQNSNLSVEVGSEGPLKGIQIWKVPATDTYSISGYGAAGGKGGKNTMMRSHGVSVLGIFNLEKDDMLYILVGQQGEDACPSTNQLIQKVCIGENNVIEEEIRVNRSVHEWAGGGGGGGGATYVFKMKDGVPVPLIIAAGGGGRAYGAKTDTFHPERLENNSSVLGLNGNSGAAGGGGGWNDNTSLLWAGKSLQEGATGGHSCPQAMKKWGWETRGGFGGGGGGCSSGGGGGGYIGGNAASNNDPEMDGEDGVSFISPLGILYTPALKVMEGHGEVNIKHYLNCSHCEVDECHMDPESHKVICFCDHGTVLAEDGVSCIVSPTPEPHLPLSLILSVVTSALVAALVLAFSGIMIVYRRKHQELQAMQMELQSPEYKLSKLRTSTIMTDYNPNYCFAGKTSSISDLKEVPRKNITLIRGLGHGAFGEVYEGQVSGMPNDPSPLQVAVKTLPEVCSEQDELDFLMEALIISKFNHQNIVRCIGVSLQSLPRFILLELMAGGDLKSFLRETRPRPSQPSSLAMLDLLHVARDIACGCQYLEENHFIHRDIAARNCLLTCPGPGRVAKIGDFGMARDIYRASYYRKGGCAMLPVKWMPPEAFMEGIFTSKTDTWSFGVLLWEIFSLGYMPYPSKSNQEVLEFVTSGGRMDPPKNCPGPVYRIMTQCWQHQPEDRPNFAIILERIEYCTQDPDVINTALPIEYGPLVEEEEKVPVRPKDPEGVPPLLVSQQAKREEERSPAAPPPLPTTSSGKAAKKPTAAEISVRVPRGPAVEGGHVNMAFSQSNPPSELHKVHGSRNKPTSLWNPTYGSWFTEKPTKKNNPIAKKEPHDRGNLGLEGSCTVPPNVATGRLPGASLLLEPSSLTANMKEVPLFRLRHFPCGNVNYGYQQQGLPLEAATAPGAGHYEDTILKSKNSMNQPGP
Summary of the method: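 Cells were seeded at 10 000/well with serial inhibitor dilutions or DMSO vehicle and incubated 72 h at 37 °C, with ^3[H]-thymidine (1 μCi/well) added for the final 16 h. Incorporation was read by β scintillation counting. IC50 (μM) is the concentration giving a 50% decrease in uptake versus controls.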

Recombinant Ret protein = biological target: T3, Recombinant Ret protein (Homo sapiens, UniProt P07949); assay: RET kinase inhibitory activity, ELISA-based in vitro kinase assay; type: biochemical; conditions: purified Ret, 0.3 mM ATP
T3 construct: made in house; host or cells: Sf9 cells (baculovirus)
T3 sequence (P07949 29-1114): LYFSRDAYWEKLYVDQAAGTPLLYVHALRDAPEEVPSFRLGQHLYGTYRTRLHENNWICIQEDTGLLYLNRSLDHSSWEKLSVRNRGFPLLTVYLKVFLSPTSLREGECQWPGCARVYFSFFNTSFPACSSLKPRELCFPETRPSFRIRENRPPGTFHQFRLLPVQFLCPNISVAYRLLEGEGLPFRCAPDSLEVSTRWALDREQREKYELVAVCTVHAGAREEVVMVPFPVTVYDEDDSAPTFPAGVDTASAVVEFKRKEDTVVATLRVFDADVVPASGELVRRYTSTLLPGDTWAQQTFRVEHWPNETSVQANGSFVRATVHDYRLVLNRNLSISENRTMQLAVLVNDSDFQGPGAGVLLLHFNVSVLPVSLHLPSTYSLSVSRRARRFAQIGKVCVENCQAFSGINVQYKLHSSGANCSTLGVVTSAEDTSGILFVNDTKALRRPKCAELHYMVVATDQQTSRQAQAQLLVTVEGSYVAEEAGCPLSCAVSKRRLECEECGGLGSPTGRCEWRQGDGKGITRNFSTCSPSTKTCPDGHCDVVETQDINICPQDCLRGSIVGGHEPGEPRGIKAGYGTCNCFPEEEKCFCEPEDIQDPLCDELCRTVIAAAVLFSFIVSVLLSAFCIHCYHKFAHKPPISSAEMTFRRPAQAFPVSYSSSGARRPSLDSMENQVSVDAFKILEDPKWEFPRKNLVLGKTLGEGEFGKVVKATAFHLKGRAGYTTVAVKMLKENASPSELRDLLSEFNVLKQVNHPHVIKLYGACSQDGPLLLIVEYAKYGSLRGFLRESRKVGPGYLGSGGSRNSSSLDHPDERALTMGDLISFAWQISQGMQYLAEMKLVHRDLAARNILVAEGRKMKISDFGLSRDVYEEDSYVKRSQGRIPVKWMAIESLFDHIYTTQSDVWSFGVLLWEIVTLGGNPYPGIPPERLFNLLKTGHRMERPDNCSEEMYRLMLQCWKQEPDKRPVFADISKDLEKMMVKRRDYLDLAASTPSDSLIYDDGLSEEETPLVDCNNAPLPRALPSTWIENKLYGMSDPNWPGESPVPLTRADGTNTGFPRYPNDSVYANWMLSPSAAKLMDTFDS
Method: Recombinant ALK kinase was expressed in Sf9 insect cells using the pBlueBacHis2C baculovirus vector system and purified using an anion exchange Fast Flow Q-sepharose column (Amersham-Pharmacia Biotech) followed by HiTrap™-nickel affinity column (Amersham-Pharmacia Biotech). Purified ALK protein was used to screen inhibitors in the ELISA-based kinase assay. A Nunc Immuno 96 well plate was incubated overnight at 37° C. with coating solution (125 μL/well) containing ALK peptide substrate ([…]) (SEQ ID NO: 1) at various concentrations in PBS. Wells were then washed with 200 μL of wash buffer (PBS-Tween 0.05%) and left to dry for at least 2 h at 37° C. The kinase reaction was performed in the presence of 50 mM Tris pH 7.5, 5 mM MnCl2, 5 mM MgCl2, 0.3 mM ATP and purified rALK in a total volume of 100 μL/well at 30° C. for 15 min. For inhibitor testing the reaction mix was preincubated with the inhibitor or solvent control for 10 min at room temperature before transferring to the ELISA plate. After the reaction wells were washed 5 times with 200 μL of wash buffer. Phosphorylated peptide was detected using 100 μL/well of a mouse monoclonal anti-phosphotyrosine antibody (clone 4G10 Upstate Biotech Ltd) diluted 1:2000 in PBS+4% BSA. After 30 min incubation at room temperature the antibody was removed and wells were washed as described above. 100 μL of a secondary antibody (anti-mouse IgG, Horseradish Peroxidase linked whole antibody, Amersham Pharmacia Biotech) diluted 1:1000 in PBS+4% BSA was added to each well and the plate was incubated again for 30 min at room temperature before washing as above. The plate was developed using 100 μL/well TMB Substrate Solution (Endogen) and the reaction was stopped by adding an equiv.ual volume of H2SO4 0.36 M. Finally, the absorbance was read at 450 nm using an Ultrospec® 300 spectrophotometer (Amersham-Pharmacia Biotech). The concentration of the test solution showing 50% inhibition as compared with the control was expressed as IC50 (μM).
38. RET Kinase Inhibitory Activity
Method: ELISA-Based In Vitro Kinase Assay
Recombinant Ret protein was expressed in Sf9 cells using the pBlueBacHis2C baculovirus expression vector. Ret was purified using an anion exchange Fast Flow Q-sepharose column (Amersham-Pharmacia Biotech) followed by HiTrap™-nickel affinity column (Amersham-Pharmacia Biotech). Purified Ret was used in the ELISA-based kinase assay to screen inhibitors as described above. The kinase reaction was performed in the presence of 50 mM Tris pH 7.5, 1 mM MnCl2, 5 mM MgCl2, 0.3 mM ATP, peptide substrate ([…]) (SEQ ID NO: 1) and purified Ret. The concentration of the test solution showing 50% inhibition as compared with the control was expressed as IC50 (μM).

[4] = biological target: T4, Recombinant Abl T315I protein (Homo sapiens, UniProt P00519, T315I); assay: Abl T315I mutant kinase inhibitory activity, ELISA-based in vitro kinase assay; type: biochemical; conditions: purified Abl T315I, 0.3 mM ATP
T4 construct: made in house; host or cells: Sf9 cells (baculovirus)
Summary of the method: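 His-tagged human Abl T315I from Sf9 cells, preincubated 10 min at room temperature with inhibitor, then reacted on peptide-coated plates with 0.3 mM ATP, 1 mM MnCl2, 5 mM MgCl2 in 50 mM Tris pH 7.5. Phosphotyrosine detected by anti-pTyr/HRP ELISA at 450 nm; IC50 as 50% inhibition vs control.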

[5] = purified rALK, 0.3 mM ATP, read-out: ALK IC50
[6] = repeated determinations, 1st, read-out: ALK IC50, 1st determination

IC50 (ALK-negative U937 cells) | IC50 [2] | IC50 (Recombinant ALK kinase; [5]) | GI50 [3] | IC50 (Recombinant ALK kinase; [6]) | ALK IC50, 2nd / subsequent determination (Recombinant ALK kinase; repeated determinations) | IC50 (Recombinant Ret protein) | IC50 [4] | melting point | SMILES | IC50 [1]
33 µM | 21 µM |  | > 180 µM |  |  |  |  |  | C(#Cc1ccc2c(n1)[nH]c1ccccc12)c1ccccc1 [R342, 2-(phenylethynyl)-9H-pyrido[2,3-b]indole] | > 100 µM
13 µM | 8.6 µM |  | 5.2 µM | 19 µM | inactive |  |  |  | COc1cccc(Nc2cnc3[nH]c4ccc(CCc5ccccc5)cc4c3c2)c1 [R352, N-(3-methoxyphenyl)-6-(2′-phenylethyl)-9H-pyrido[2,3-b]indol-3-amine] | 5.3 µM
4.6 µM | 2.6 µM | 7.8 ± 0.9 µM | 2.5 µM |  |  |  |  |  | CN1CCN(CCOc2ccc(-c3ccc4[nH]c5ncc(Cl)cc5c4c3)cc2)CC1 [R347, 3-chloro-6-(4-(2-(4-methylpiperazin-1-yl)ethoxy)phenyl)-9H-pyrido[2,3-b]indole] | 2.4 µM
17 µM | 48 µM | 11 ± 0.1 µM | 74 µM |  |  |  |  |  | CCCC#Cc1ccc2c(n1)[nH]c1ccccc12 [R341, 2-(pent-1-ynyl)-9H-pyrido[2,3-b]indole] | 70 µM
23 µM | 7.6 µM |  | > 100 µM | 66 µM | inactive |  |  |  | Clc1cnc2[nH]c3ccc(CCc4ccccc4)cc3c2c1 [R351, 3-chloro-6-(2′-phenylethyl)-9H-pyrido[2,3-b]indole] | > 100 µM
27 µM | 25 µM | 13 µM | 22 µM |  |  |  |  |  | c1ccc(CCc2ccc3[nH]c4ncc(-c5ccc6c(c5)OCO6)cc4c3c2)cc1 [R354, 3-(benzo[d][1,3]dioxol-5-yl)-6-(2′-phenylethyl)-9H-pyrido[2,3-b]indole] | 27 µM

The remaining lines, values behind:

SMILES | IC50 (ALK-negative U937 cells) | IC50 [2] | IC50 (Recombinant ALK kinase; [5]) | GI50 [3] | IC50 (Recombinant ALK kinase; [6]) | ALK IC50, 2nd / subsequent determination (Recombinant ALK kinase; repeated determinations) | IC50 (Recombinant Ret protein) | IC50 [4] | melting point | IC50 [1]
CCN(CC)CCCOc1ccc(-c2ccc3[nH]c4ncc(C=Cc5ccccc5)cc4c3c2)cc1 [R340] | 0.5 µM | 0.7 µM | 7 ± 1.5 µM | 1.2 µM |  |  |  |  |  | 1 µM
O=[N+]([O-])c1ccccc1Nc1ccc2c(n1)[nH]c1ccc(/C=C/c3ccccc3)cc12 [R332, N-(2-nitrophenyl)-6-(2′-phenylethenyl)-9H-pyrido[2,3-b]indol-2-amine] | 1.9 µM | 3.6 µM | 13 ± 2 µM | 3 ± 0.8 µM |  |  |  |  |  | 20 ± 1 µM
CCN(CC)CCCOc1ccc(-c2ccc3[nH]c4ncc(/C=C/c5ccccc5)cc4c3c2)cc1 [R338, N,N-diethyl-3-(4-(3-(2′-phenylethenyl)-9H-pyrido[2,3-b]indol-6-yl)phenoxy)propan-1-amine] | 0.4 µM | 0.4 µM |  | 0.5 µM |  |  |  |  |  | 0.4 µM
C(=C\c1cnc2[nH]c3ccccc3c2c1)/c1ccccc1 [R281, 3-(2′-phenylethenyl)-9H-pyrido[2,3-b]indole] |  | > 100 µM | 0.5 ± 0.3 µM | > 100 µM |  |  | 1.1 µM | 1.8 µM |  | > 100 µM
O=[N+]([O-])c1ccccc1Nc1ccnc2[nH]c3ccccc3c12 [R323, N-(2-nitrophenyl)-9H-pyrido[2,3-b]indol-4-amine] | 13 µM | > 100 µM | 23 ± 12 µM | 0.21 ± 0.01 µM |  |  |  |  |  | > 100 µM
COc1ccc(-c2ccc3c(n2)[nH]c2ccccc23)cc1 [R299, 2-(4-methoxyphenyl)-9H-pyrido[2,3-b]indole] |  | 59 µM | 2.1 ± 0.5 µM | > 100 µM |  |  | 4.1 µM | > 100 µM |  | > 100 µM
COc1ccc(-c2cnc3[nH]c4ccccc4c3c2)cc1 [R278, 3-(4-methoxyphenyl)-9H-pyrido[2,3-b]indole] |  |  | 1.2 ± 0.2 µM | > 50 µM |  |  | 1 µM | 23 µM | > 220 °C | > 50 µM
